Results published in patent US10681909B2, “Herbicidal triazoles” (FMC Corporation, priority 2014, dated 2020).

Columns and labels:
[1] = tested on: windgrass; experiment: Test D preemergence; assay type: in vivo, Apera spica-venti; conditions: scale 0 to 100
From the text: (§1) Seeds of plant species selected from bluegrass (annual bluegrass, Poa annua), blackgrass (Alopecurus myosuroides), canarygrass (Phalaris minor), chickweed (common chickweed, Stellaria media), galium (catchweed bedstraw, Galium aparine), bromegrass, down (downy bromegrass, Bromus tectorum), Russian thistle (Salsola kali), field poppy (Papaver rhoeas), field violet (Viola arvensis), foxtail, green (green foxtail, Setaria viridis), deadnettle (henbit deadnettle, Lamium amplexicaule), ryegrass, Ital. (Italian ryegrass, Lolium multiflorum), kochia (Kochia scoparia), lambsquarters (Chenopodium album), oilseed rape (Brassica napus), pigweed (Amaranthus retroflexus), chamomile (scentless chamomile, Matricaria inodora), speedwell (bird's-eye speedwell, Veronica persica), barley, spring (spring barley, Hordeum vulgare), wheat, spring (spring wheat, Triticum aestivum), buckwheat, wild (wild buckwheat, Polygonum convolvulus), wild mustard (Sinapis arvensis), oat, wild (wild oat, Avena fatua), radish, wild (wild radish, Raphanus raphanistrum), […]), barley, winter (winter barley, Hordeum vulgare), and wheat, winter (winter wheat, Triticum aestivum) were planted into a silt loam soil and treated preemergence with test chemicals formulated in a non-phytotoxic solvent mixture which included a surfactant. At the same time, these species were planted in pots containing Sunshine Redi-Earth® planting medium comprising spaghnum peat moss, vermiculite, starter nutrients and dolomitic limestone and treated with postemergence applications of the test chemicals formulated in the same manner. Plants ranged in height from 2 to 18 cm (1- to 4-leaf stage). Treated plants and controls were maintained in a controlled growth environment for 14 to 21 d after which time all species were compared to controls and visually evaluated. […] A dash (-) response means no test result.

[2] = tested on: pigweed; experiment: Test D postemergence; assay type: in vivo, Amaranthus retroflexus; conditions: scale 0 to 100
From the text: as §1

[3] = tested on: radish, wild; experiment: Test D preemergence; assay type: in vivo, Raphanus raphanistrum; conditions: scale 0 to 100
From the text: as §1

[4] = tested on: crabgrass, large; experiment: Test C preemergence; assay type: in vivo, Digitaria sanguinalis; conditions: for Plant response rating (scale of 0 to 100 where 0 is no effect and 100 is complete control): Crabgrass, Large, preemergence; for Crabgrass, Large plant response rating (0 to 100): Preemergence, visual rating after 13 to 15 d
From the text: (§2) Seeds of plant species selected from blackgrass (Alopecurus myosuroides), ryegrass, Italian (Italian ryegrass, Lolium multiflorum), wheat (winter wheat, Triticum aestivum), galium (catchweed bedstraw, Galium aparine), corn (Zea mays), crabgrass, large (large crabgrass, Digitaria sanguinalis), foxtail, giant, (giant foxtail, Setaria faberii), johnsongrass (Sorghum halepense), lambsquarters (Chenopodium album), morningglory (Ipomoea coccinea), nutsedge, yellow (yellow nutsedge, Cyperus esculentus), pigweed (Amaranthus retroflexus), ragweed (common ragweed, Ambrosia elatior), soybean (Glycine max), barnyardgrass (Echinochloa crus-galli), oilseed rape (Brassica napus), waterhemp (common waterhemp, Amaranthus rudis), and velvetleaf (Abutilon theophrasti) were planted into a blend of loam soil and sand and treated preemergence with test chemicals formulated in a non-phytotoxic solvent mixture which included a surfactant. At the same time, plants selected from these crop and weed species and also chickweed (common chickweed, Stellaria media), oat, wild (wild oat, Avena fatua), and kochia (Kochia scoparia), were planted in pots containing Sunshine Redi-Earth® planting medium comprising spaghnum peat moss, vermiculite, starter nutrients and dolomitic limestone and treated with postemergence applications of test chemicals formulated in the same manner. Plants ranged in height from 2 to 18 cm (1- to 4-leaf stage) for postemergence treatments. […] A dash (-) response means no test result.

[5] = tested on: lambsquarters; experiment: Test C preemergence; assay type: in vivo, Chenopodium album; conditions: for Plant response rating (scale of 0 to 100 where 0 is no effect and 100 is complete control): Lambsquarters, preemergence; for Lambsquarters plant response rating (0 to 100): Preemergence, visual rating after 13 to 15 d
From the text: as §2

[6] = tested on: pigweed; experiment: Test C preemergence; assay type: in vivo, Amaranthus retroflexus; conditions: for Plant response rating (scale of 0 to 100 where 0 is no effect and 100 is complete control): Pigweed, preemergence; for Pigweed plant response rating (0 to 100): Preemergence, visual rating after 13 to 15 d
From the text: as §2

[7] = tested on: canarygrass; experiment: Test D postemergence; assay type: in vivo, Phalaris minor; conditions: scale 0 to 100
From the text: as §1

[8] = tested on: windgrass; experiment: Test D postemergence; assay type: in vivo, Apera spica-venti; conditions: scale 0 to 100
From the text: as §1

[9] = tested on: canarygrass; experiment: Test D preemergence; assay type: in vivo, Phalaris minor; conditions: scale 0 to 100
From the text: as §1

[10] = tested on: corn; experiment: Test C preemergence; assay type: in vivo, Zea mays; conditions: for Plant response rating (scale of 0 to 100 where 0 is no effect and 100 is complete control): Corn, preemergence; for Corn plant response rating (0 to 100): Preemergence, visual rating after 13 to 15 d
From the text: as §2

[11] = tested on: blackgrass; experiment: Test C preemergence; assay type: in vivo, Alopecurus myosuroides; conditions: for Plant response rating (scale of 0 to 100 where 0 is no effect and 100 is complete control): Blackgrass, preemergence; for Blackgrass plant response rating (0 to 100): Preemergence, visual rating after 13 to 15 d
From the text: as §2

## CCc1nc(-c2ccc(C(F)(F)F)cc2)nn1Cc1ccnc(C(F)(F)F)c1 [Compound 1, 4-[[5-ethyl-3-[4-(trifluoromethyl)phenyl]-1H-1,2,4-triazol-1-yl]methyl]-2-(trifluoromethyl)pyridine]
[1]; 62 g ai/ha
  Plant response rating: Windgrass: 100
[1]; 125 g ai/ha
  Plant response rating: Windgrass: 100
[1]; 250 g ai/ha
  Plant response rating: Windgrass: 100
[2]; 31 g ai/ha
  Plant response rating: Pigweed: 80
[2]; 62 g ai/ha
  Plant response rating: Pigweed: 85
[2]; 125 g ai/ha
  Plant response rating: Pigweed: 85
[2]; 250 g ai/ha
  Plant response rating: Pigweed: 85
[3]; 62 g ai/ha
  Plant response rating: Radish, Wild: 100
[3]; 125 g ai/ha
  Plant response rating: Radish, Wild: 100
[3]; 250 g ai/ha
  Plant response rating: Radish, Wild: 100
[4]; 125 g ai/ha
  Plant response rating (scale of 0 to 100 where 0 is no effect and 100 is complete control): 100
[4]; 250 g ai/ha
  Plant response rating (scale of 0 to 100 where 0 is no effect and 100 is complete control): 100
[4]; 31 g ai/ha
  Crabgrass, Large plant response rating (0 to 100): 98
[4]; 62 g ai/ha
  Crabgrass, Large plant response rating (0 to 100): 100
[5]; 125 g ai/ha
  Plant response rating (scale of 0 to 100 where 0 is no effect and 100 is complete control): 98
[5]; 250 g ai/ha
  Plant response rating (scale of 0 to 100 where 0 is no effect and 100 is complete control): 98
[5]; 31 g ai/ha
  Lambsquarters plant response rating (0 to 100): 90
[5]; 62 g ai/ha
  Lambsquarters plant response rating (0 to 100): 98
[6]; 125 g ai/ha
  Plant response rating (scale of 0 to 100 where 0 is no effect and 100 is complete control): 100
[6]; 250 g ai/ha
  Plant response rating (scale of 0 to 100 where 0 is no effect and 100 is complete control): 100
[6]; 31 g ai/ha
  Pigweed plant response rating (0 to 100): 100
[6]; 62 g ai/ha
  Pigweed plant response rating (0 to 100): 100
[7]; 31 g ai/ha
  Plant response rating: Canarygrass: 15
[7]; 62 g ai/ha
  Plant response rating: Canarygrass: 20
[7]; 125 g ai/ha
  Plant response rating: Canarygrass: 35
[7]; 250 g ai/ha
  Plant response rating: Canarygrass: 65
[8]; 31 g ai/ha
  Plant response rating: Windgrass: 15
[8]; 62 g ai/ha
  Plant response rating: Windgrass: 20
[8]; 125 g ai/ha
  Plant response rating: Windgrass: 30
[8]; 250 g ai/ha
  Plant response rating: Windgrass: 60
[9]; 31 g ai/ha
  Plant response rating: Canarygrass: 5
[9]; 62 g ai/ha
  Plant response rating: Canarygrass: 30
[9]; 125 g ai/ha
  Plant response rating: Canarygrass: 60
[9]; 250 g ai/ha
  Plant response rating: Canarygrass: 100
[10]; 125 g ai/ha
  Plant response rating (scale of 0 to 100 where 0 is no effect and 100 is complete control): 25
[10]; 250 g ai/ha
  Plant response rating (scale of 0 to 100 where 0 is no effect and 100 is complete control): 40
[10]; 31 g ai/ha
  Corn plant response rating (0 to 100): 5
[10]; 62 g ai/ha
  Corn plant response rating (0 to 100): 15
[11]; 125 g ai/ha
  Plant response rating (scale of 0 to 100 where 0 is no effect and 100 is complete control): 80
[11]; 250 g ai/ha
  Plant response rating (scale of 0 to 100 where 0 is no effect and 100 is complete control): 85
[11]; 31 g ai/ha
  Blackgrass plant response rating (0 to 100): 5
[11]; 62 g ai/ha
  Blackgrass plant response rating (0 to 100): 75
